Measurements taken from US20250304622A1, “SHORT APOLIPOPROTEIN E MIMETIC PEPTIDES AND METHODS OF USE” (The United States of America, as represented by the …, priority 2022, published 2025).
Numbered stars: 1 amine (or outer) side, 2 acyl side, 3 side chain; on linkers, the order of the positions; unused ones are H or OH. Bridge positions count the residues as written; N and C are the ends. Square brackets hold non-standard residues; d marks the D form. Primed or numbered codes have the meaning given here. * marks the point of attachment. B5 = bis-pentenylglycine, C=CCCCC(CCCC=C)(N[*:1])C(=O)[*:2]; R8 = C=CCCCCCC[C@@](C)(N)C(=O)O; S8 = C=CCCCCCC[C@](C)(N)C(=O)O; αMeL = CC(C)C[C@](C)(N)C(=O)O; Octanoyl′ = not defined here; S5 = C=CCCC[C@](C)(N)C(=O)O; Myristyl = CCCCCCCCCCCCCC*; Octanoyl = CCCCCCCC(=O)*

Experiments:
[1] = system: Mouse Hepatitis Virus (MHV); assay: MHV-GFP replication in HeLa mCC1a cells; format: cell-based; details: 15 μM peptide, 16 hours, FIG. 11
Source text: Mouse Hepatitis Virus (MHV) is a beta coronavirus that infects mice cells via the murine CEACAM1 receptor (mCC1a receptor). HeLa (human epithelium) cells that have been modified to express the mCC1a receptor can be infected with MHV. The recombinant MHV used in this experiment has been modified such that it contains additional nucleocapsid (N) protein segment which is N-terminally fused with a green fluorescence protein tag (GFP) (see Verheije et al., J. Virol. 84:11575-11579, 2010). When cells are infected with MHV, the MHV replicates generating more GFP and increasing the fluorescent signal.
HeLa mCC1a cells were cultured in a 96 well plate. Cells were infected for 2 hours with MHV-GFP at 37° C. Viral stock solution was diluted 40-fold. Stock was prepared by infecting HeLa cells with MHV-GFP for 3 days and by collecting cellular media. Cells were washed with PBS and treated with media (DMEM plus 10% FBS, 100 IU/ml penicillin G, […] streptomycin, 0.5 mg/ml G418) containing ApoE peptides (15 μM) or media without peptide and incubated for 16 hours at 37° C. Cells were washed with PBS and total GFP fluorescence (ex/em 488/520) in cells was measured on the plate using a fluorescence plate reader.

WT HepG2 cells [2] = assay: LDL uptake by heparinase treated WT HepG2 cells; format: cell-based; details: Heparinase I, II, and III pretreatment
Protocol: (§1) Involvement of heparan sulfate proteoglycans (HSPGs) in peptide-mediated LDL uptake was tested. WT HepG2 cell were pretreated with a mixture of Heparinase I, II, and III (IBEX Pharmaceuticals) to degrade heparan sulfate chains on the cell surface. Next, LDL uptake studies were performed with OctaC-E139-150-S and MyrN-E141-150-amL peptides (FIGS. 18A-18C). […] Similarly, heparinase treatment attenuated MyrN-E141-150-amL mediated LDL uptake in WT HepG2 cells (FIG. 18C).

LDLR-KO mice = assay: Single dose LDLR-KO mouse study, plasma total cholesterol; format: in vivo; details: 2.5 μmol/kg (4.6 mg/kg) i.v. single dose, after 3 h and 6 h of injection, FIG. 21A
Protocol: MyrN-E141-150-amL and OctaN-E141-150 were tested in a single dose LDLR-KO mouse study. LDLR-KO mice (n=9) were divided into 3 groups: control group (PBS), n=3; MyrN-E141-150-amL (2.5 μmol/kg; 4.6 mg/kg), n=3; and OctaN-E141-150 (2.5 μmol/kg; 4.4 mg/kg), n=3. Mice were fed normal chow diet for the whole study. Peptides were injected i.v. and blood samples were collected at pre-injection and 1 h, 3 h, 6 h and 24 h after the injection of the peptides. Measurement of plasma total cholesterol was as described in Example 2. MyrN-E141-150-amL lowered plasma total cholesterol around 15-30% after 3 h and 6 h of injection (FIG. 21A).

WT HepG2 cells [3] = assay: Effect of heparin on peptide mediated LDL uptake in WT HepG2 cells; format: cell-based; details: 10 μM peptide, heparin 10 USP/ml, 1 h at 37° C., FIG. 19
Protocol: Fluorescently labeled LDL (Alexa Fluor 568-NHS ester) at 50 μg/ml final protein concentration was preincubated with or without 10 μM MyrN-E141-150-amL peptide for 30 min at 37° C. (solutions made in DMEM (no phenol red, no serum) with 0.1% BSA). To some LDL and some LDL/peptide samples, heparin was added (10 USP/ml final conc.; heparin, sodium injection from porcine intestinal mucosa (Fresenius Kabi USA, Lake Zurich, IL)). Mixtures were preincubated for additional 5 min at 37° C. Next, WT HepG2 cells were incubated with the LDL/peptide/heparin mixtures for 1 h at 37° C. Lipoprotein uptake was assessed by flow cytometry. Heparin diminished the effect of MyrN-E141-150-amL peptide on LDL uptake in the wild type HepG2 cells (FIG. 19).

ApoE-ko mice = assay: Single dose study in ApoE-ko mice, plasma total cholesterol and triglycerides; format: in vivo; details: for lowering of plasma total cholesterol: ApoE-KO mice, 2.5 μmol/kg i.v. single dose, FIG. 20A; for plasma total cholesterol / plasma triglyceride levels: ApoE-ko mice, 4.6 mg/kg (2.5 μmol/kg) intravenous; for plasma total cholesterol: FIG. 10A; for plasma triglyceride levels: effect transient, FIG. 10B
Protocol: The effect of OctaC-E139-150 and OctaN-E139-150 peptides were tested in ApoE-ko mice. The mice were kept on a normal chow diet. At 3.5 months of age, 15 mice were divided into three groups of five mice each, as follows: 1) control group; 2) OctaC-E139-150 peptide group; and 3) OctaN-E139-150 peptide group. Peptides were dissolved in PBS at 1.5 mg/ml (810 μM OctaC-E139-150; 849 μM OctaN-E139-150). Mice were weighed one day before peptide administration and peptide amount was calculated for each mouse to receive 4.6 mg/kg peptide (2.5 μmol/kg). The calculated amount of 1.5 mg/ml peptide was placed in a syringe and normalized with PBS to 80 μl. The mice received intravenous injection of PBS (control) or the peptide. Blood samples were collected immediately prior to injection, and 1 hour, 3 hours, and 6 hours after injection. Blood was centrifuged at 3000 rpm at 4° C. for 20 minutes and plasma was separated (20-30 μl) and stored at 4° C. Plasma triglycerides and total cholesterol were measured the next day using L-type triglyceride M assay and The cholesterol E kit (Wako, FUJIFILM Medical Systems USA).
MyrN-E139-150 and OctaN-E139-150 peptides were tested in a single dose ApoE-KO mouse study. ApoE-KO mice (n=9) were divided into 3 groups: control group (PBS), n=3; MyrN-E139-150 (2.5 μmol/kg; 4.6 mg/kg), n=3; and OctaN-E139-150 (2.5 μmol/kg; 4.4 mg/kg), n=3. Mice were fed normal chow diet for the whole study. Peptides were injected i.v. and blood samples were collected at pre-injection and 1 h, 3 h, and 6 h after the injection of the peptides. Measurement of plasma total cholesterol and triglycerides was as described in Example 2. The peptides lowered plasma total cholesterol (FIG. 20A; 37% at 3 h; 29% at 6 h) and triglycerides (FIG. 20B; 30-50% at 1 h).

LDLR-ko HepG2 cells = assay: LDL uptake by heparinase treated LDLR-KO HepG2 cells; format: cell-based; details: heparinase pretreatment, FIG. 18B
Protocol: as §1

[4] = low peptide dose, FIGS. 18A, 18C

Substance | MHV-GFP fluorescence (viral replication) [1] | effect of heparinase treatment on peptide mediated LDL uptake (WT HepG2 cells [2]; [4]) | lowering of plasma total cholesterol (ApoE-ko mice; at 3 h) [%] | lowering of plasma total cholesterol (ApoE-ko mice; at 6 h) [%] | plasma total cholesterol (ApoE-ko mice) | plasma triglyceride levels (ApoE-ko mice) | further results
Ac-RVR(S5)ASH(B5)RKLRKR(S8)LR-NH2 (Ac-RVR[S5]ASH[B5]RKLRKR[S8]LR-NH2; staple 8-15, 4-8) [E134-150-Stitch] | dramatic reductions | – | – | – | – | – | –
Myristyl-(R8)RKLRKR(S5)L(alpha-methyl)R-NH2 (Myristyl-[R8]RKLRKR[S5][αMeL]R-NH2; staple 1-8; SMILES CCCCCCCCCCCCCCN[C@]1(C)CCCCCCC=CCCC[C@@](C)(C(=O)N[C@@](C)(CC(C)C)C(=O)N[C@@H](CCCNC(=N)N)C(N)=O)NC(=O)[C@H](CCCNC(=N)N)NC(=O)[C@H](CCCCN)NC(=O)[C@H](CCCNC(=N)N)NC(=O)[C@H](CC(C)C)NC(=O)[C@H](CCCCN)NC(=O)[C@H](CCCNC(=N)N)NC1=O) [MyrN-E141-150-amL] | – | attenuated | – | – | – | – | lowering of plasma total cholesterol (LDLR-KO mice): 15-30%; effect of heparin on peptide effect on LDL uptake (WT HepG2 cells [3]): diminished
Octanoyl-SH(R8)RKLRKR(S5)LR-NH2 (Octanoyl-SH[R8]RKLRKR[S5]LR-NH2; staple 3-10; SMILES CCCCCCCC(=O)N[C@@H](CO)C(=O)N[C@@H](Cc1c[nH]cn1)C(=O)N[C@]1(C)CCCCCCC=CCCC[C@@](C)(C(=O)N[C@@H](CC(C)C)C(=O)N[C@@H](CCCNC(=N)N)C(N)=O)NC(=O)[C@H](CCCNC(=N)N)NC(=O)[C@H](CCCCN)NC(=O)[C@H](CCCNC(=N)N)NC(=O)[C@H](CC(C)C)NC(=O)[C@H](CCCCN)NC(=O)[C@H](CCCNC(=N)N)NC1=O) [OctaN-E139-150] | – | – | 37 | 29 | significantly decreased | significantly decreased | –
Ac-SH(R8)RKLRKR(S5)LR-Octanoyl (Ac-SH[R8]RKLRKR[S5]LR-{Octanoyl′}; staple 3-10) [OctaC-E139-150] | dramatic reductions | diminished low dose peptide effect on LDL uptake | – | – | significantly decreased | significantly decreased | effect of heparinase treatment on peptide mediated LDL uptake (WT HepG2 cells [2]; higher peptide concentrations, FIG. 18A): heparinase treatment had a lower effect; effect of heparinase treatment on peptide mediated LDL uptake (LDLR-ko HepG2 cells): showed similar results
Myristyl-SH(R8)RKLRKR(S5)LR-NH2 (Myristyl-SH[R8]RKLRKR[S5]LR-NH2; staple 3-10; SMILES CCCCCCCCCCCCCCN[C@@H](CO)C(=O)N[C@@H](Cc1c[nH]cn1)C(=O)N[C@]1(C)CCCCCCC=CCCC[C@@](C)(C(=O)N[C@@H](CC(C)C)C(=O)N[C@@H](CCCNC(=N)N)C(N)=O)NC(=O)[C@H](CCCNC(=N)N)NC(=O)[C@H](CCCCN)NC(=O)[C@H](CCCNC(=N)N)NC(=O)[C@H](CC(C)C)NC(=O)[C@H](CCCCN)NC(=O)[C@H](CCCNC(=N)N)NC1=O) [MyrN-E139-150] | – | – | 37 | 29 | – | – | –
